Test results taken from patent publication US10323078B2, “Isolated peptides and fragments thereof from fibrinogen for use as drugs, particularly in skin inflammatory diseases” (Universite Paris Descartes, priority 2015, dated 2019).

Key:
[1] = test system: HaCaT, NHDK, THP-1, MRC5 and HDF; assay: H2O2 production by cells stimulated with P. acnes, overall statement for the five cell lines; assay type: cell-based, human; conditions: pretreatment of P. acnes strains with small peptide 2.5 to 20 μM; five cell lines and three strains tested
Method: FIG. 17: Dose-dependent inhibition of H2O2 production by fibroblast pre-treated by small Fg1-generated peptides and stimulated by P. acnes. MRC5 cell were incubated for 24 h with small peptides Fg1.1 (light gray bar), Fg1.2 (horizontal line bar), Fg1.3 (hatched bar), Fg1.4 (dark gray bar), Fg1.5 (dotted bar) at concentrations ranging from 2.5 to 20 μM. Measurement of hydrogen peroxide production was realized by spectrofluorometry as described in Materials and Methods. Controls experiments were done with unstimulated MRC5 cell (white bar) and MRC5 stimulated with P. acnes (black bar). Data are means±S.D. of three separate experiments. Statistical significance is indicated by * (P<0.05), ** (P<0.01), *** (P<0.001), and **** (P<0.0001), respectively.
(§1) All cells lines (5·10^4 to 10^5 cells/well) were seeded in 96-well plates (Corning Costar, Brumath, France) and treated as previously described. After stimulation, cells were washed three times in PBS and incubated with 100 μl per wells of 5 μM DHE (for determination of O2^●−) or 5 μM H2-DCFDA (for determination of H2O2) for 30 min as described previously and fluorescence intensity was recorded every hour over a period of 5 h. Fluorescence excitation/emission maxima were for DHE: 480/610 nm and for H2-DCFDA: 507/525 nm. At the end of the experiment, the number of adherent cells was evaluated by the crystal violet assay as described below. O2^●−, and H2O2 were assayed by spectrofluorimetry on a Fusion spectrofluorimeter (PackardBell, Paris, France). Levels of ROS were calculated in each sample as follows: reactive oxygen species rate (arbitrary units/min/10^6 cells)=(fluorescence intensity [arbitrary units] at T5h—fluorescence intensity [arbitrary units] at To/300 minutes/number of adherent cells as measured by the crystal violet assay, and were expressed as arbitrary unit (A.U.).
(§2) To assess the efficacy of the small Fg1-related peptide, the production of H2O2 by several cell lines (HaCaT, NHDK, THP-1, MRC5 and HDF) stimulated by three P. acnes strains 6919, RON and PIE was measured, in presence or not with the small peptides. The amount of H2O2 produced is compared to that produced by the stimulated cells with untreated bacteria. Production baseline is obtained by measuring H2O2 on unstimulated cells. The measurement of the production of H2O2 is performed by spectrofluorimetry in the presence of specific fluorochromes directly on the monolayer cell.
(§3) Two sets of experiments have been implemented: • I) The cells are stimulated (18 h at 37° C.) by P. acnes strains previously pretreated with Fg1.1, Fg1.2, Fg1.3, Fg1.4, and Fg1.5 small peptides at the final concentrations ranging from 2.5 to 20 μM for 1 h at 37° C.; • II) The cells are pretreated first with the five small peptides at the final concentrations ranging from 2.5 to 20 μM for 24 h at 37° C. and stimulated (18 h at 37° C.) by P. acnes strains.
FIG. 17 corresponds to the results obtained with the P. acnes RON strain on the fibroblast MRCS cell line and are representative of the results obtained with all P. acnes and cells lines tested (Table 6).

NHDK cells = assay: H2O2 production by P. acnes-stimulated NHDK; assay type: cell-based, human; conditions: cells first pretreated, small peptides 2.5 to 20 μM
Method: (§4) For experiences of stimulation with P. acnes, cells were incubated with the P. acnes suspension adjusted at the appropriate concentration, pre-treated for 1 h at 37° C. or not with fibrinogen recombinant peptides Fg1 and Fg2 at the concentrations 0.87, 1.75, 3.5 or 7 μM for the desired period of time at 37° C. in 5% CO2.
as §1
(§5) To assess the efficacy of Fg1 recombinant peptide, the production of O2^∘− and H2O2 by HaCaT cells NHDK, THP-1, MRC5 and HDF stimulated by pretreated P. acnes strains 6919, RON and PIE was measured. The amount of ROS produced was compared to that produced by the stimulated cells with untreated bacteria. Production baseline was obtained by measuring ROS on unstimulated cells. The production of IL-1ß, IL-8, IL-12 and TNF-α was also measured in all conditions cited above. The measurement of the production of ROS is performed by spectrofluorimetry in the presence of specific fluorochromes directly on the monolayer cell. Measurement of cytokine production was performed in parallel on the cell culture supernatant.
(§6) Two sets of experiments were implemented: 1) The cells were stimulated (18 h at 37° C.) by P. acnes strains previously pretreated with Fg1 and Fg2 peptides at the final concentrations ranging from 0.87 to 7 μM for 1 h at 37° C.; and 2) The cells were pretreated first with Fg1 and Fg2 peptides at the final concentrations ranging from 0.87 to 7 μM for 24 h at 37° C. and stimulated (18 h at 37° C.) by P. acnes strains.
as §2, §3

ThP1 cells = assay: H2O2 production by P. acnes-stimulated ThP1; assay type: cell-based, human; conditions: small peptides 2.5 to 20 μM
Method: as §4, §1, §5, §6, §2, §3

HaCaT cells = assay: H2O2 production by P. acnes-stimulated HaCaT (spectrofluorimetry, H2-DCFDA); assay type: cell-based, human; conditions: small peptides 2.5 to 20 μM
Method: as §4, §1, §5, §6, §2, §3

HDF cells = assay: H2O2 production by P. acnes-stimulated HDF; assay type: cell-based, human; conditions: cells first pretreated, small peptides 2.5 to 20 μM
Method: as §4, §1, §5, §6, §2, §3

MRC5 cells = assay: H2O2 production by P. acnes-stimulated MRC5; assay type: cell-based, human; conditions: small peptides 2.5 to 20 μM
[2] = test system: P. acnes surface proteins; assay: Binding of biotinylated ECM ligands to immobilized P. acnes surface proteins; parameters: species or system Propionibacterium acnes; conditions: 25 μg/ml of protein immobilized per well; various quantity of biotinylated Fg and Collagen I
Method: FIG. 2: Binding of P. acnes surface protein to purified human fibrinogen. (A) P. acnes surface proteins (0.8 to 50 μg/ml) were immobilized onto a 96-well polystyrene plate and probed with biotinylated fibrinogen (0.1 μg/ml) for 2 h at room temperature. (B) P. acnes surface proteins (25 μg/ml) were immobilized onto a 96-well polystyrene plate and probed with various concentrations of biotinylated fibrinogen ranging from 0.1 to 16 μg/ml for 2 h at room temperature. Bound biotinylated fibrinogen were detected with HRP-streptavidine as described in Materials and Methods.
To characterize the interaction between P. acnes and ligands, we used biotinylated molecules in quantitative and qualitative assays. In a first set of assays, ECM ligands (fibrinogen, collagens I, IV, VI and VIII) were used as labelled proteins with biotin. In a second set of assays, P. acnes surface proteins (total extract and purified Pfg) were biotinylated. For quantitative analysis, unlabeled protein were diluted into 50 mM carbonate-bicarbonate, pH 9.6 buffer to yield a protein concentration ranging from 0.01 to 50 μg/ml, and then immobilized to 96-well polystyrene plates at 4° C. overnight. […] After washing, bound peroxidase was detected using the chromogenic peroxidase substrate ABTS. […] Binding activity was detected by incubating the membranes with 20 ml of PBT containing biotinylated proteins (0.1 μg/ml) for 2 h at room temperature followed by three washes with PBT. Bound biotinylated proteins were detected by incubating the membrane with peroxidase conjugated to streptavidin (0.5 μg/ml in PBT) for 1 h at room temperature. After washing, bound peroxidase activity was detected using 3,3′-diaminobenzidine in the presence of CoCl2 and H2O2 (Harlow and Lane, 1988).
In order to identify P. acnes surface protein recognized by ECM ligands, we used the most commons ECM proteins recognize by skin related bacteria like collagens and fibrinogen. […] To identify surface proteins, P. acnes total heat protein extracts were electrophoretically separated and detected by silver staining (FIG. 1B). […]

[3] = P. acnes 6919, set I, bacteria first pretreated
[4] = P. acnes 6919, set II, cells first pretreated
[5] = P. acnes PIE, set I, bacteria first pretreated
[6] = P. acnes PIE, set II, cells first pretreated
[7] = P. acnes RON, set I, bacteria first pretreated
[8] = P. acnes RON, set II, cells first pretreated

| Substance | Inhibition of H2O2 production [1] | Inhibition of Hydrogen peroxide (H2O2) production (NHDK cells; P. acnes 6919, set II) | Inhibition of Hydrogen peroxide (H2O2) production (NHDK cells; P. acnes PIE, set II) | Inhibition of Hydrogen peroxide (H2O2) production (NHDK cells; P. acnes RON, set II) | Inhibition of Hydrogen peroxide (H2O2) production (ThP1 cells; [3]) | Inhibition of Hydrogen peroxide (H2O2) production (ThP1 cells; [4]) | Inhibition of Hydrogen peroxide (H2O2) production (ThP1 cells; [5]) | Inhibition of Hydrogen peroxide (H2O2) production (ThP1 cells; [6]) | Inhibition of Hydrogen peroxide (H2O2) production (ThP1 cells; [7]) | Inhibition of Hydrogen peroxide (H2O2) production (ThP1 cells; [8]) | Inhibition of Hydrogen peroxide (H2O2) production (HaCaT cells; [3]) | Inhibition of Hydrogen peroxide (H2O2) production (HaCaT cells; [4]) | Inhibition of Hydrogen peroxide (H2O2) production (HaCaT cells; [5]) | Inhibition of Hydrogen peroxide (H2O2) production (HaCaT cells; [6]) | Inhibition of Hydrogen peroxide (H2O2) production (HaCaT cells; [7]) | Inhibition of Hydrogen peroxide (H2O2) production (HDF cells; P. acnes 6919, set II) | Inhibition of Hydrogen peroxide (H2O2) production (HDF cells; P. acnes PIE, set II) | Inhibition of Hydrogen peroxide (H2O2) production (HDF cells; P. acnes RON, set II) | Inhibition of Hydrogen peroxide (H2O2) production (MRC5 cells; [3]) | Inhibition of Hydrogen peroxide (H2O2) production (MRC5 cells; [4]) | further results |
| --- | --- | --- | --- | --- | --- | --- | --- | --- | --- | --- | --- | --- | --- | --- | --- | --- | --- | --- | --- | --- | --- |
| LLLCVFLVKSQGVNDNEEGFFSARGHRPLD (fragment Fg1.4) [small peptide generated from Fg1, overlapping Fg1.1 and Fg1.2] | inhibits the production of H2O2 in a dose-dependent manner | pos | pos | pos | pos | pos | pos | pos | pos | pos | pos | pos | pos | pos | pos | pos | pos | pos | pos | pos | Inhibition of Hydrogen peroxide (H2O2) production (MRC5 cells; [5]): pos; Inhibition of Hydrogen peroxide (H2O2) production (MRC5 cells; [6]): pos; Inhibition of Hydrogen peroxide (H2O2) production (MRC5 cells; [7]): pos |
| collagen I: commercial ECM ligand, biotinylated, tested for binding to P. acnes surface proteins [reference compound] |  |  |  |  |  |  |  |  |  |  |  |  |  |  |  |  |  |  |  |  | Binding activity of biotinylated ligand to immobilized P. acnes total surface protein [2]: No binding activity |
| MKRMVSWSFHKLKTMKHLLLLLLCVFLVKSQGVND (fragment Fg1.1) [small peptide generated from Fg1] | inhibits the production of H2O2 in a dose-dependent manner | pos | pos | pos | pos | pos | pos | pos | pos | pos | pos | pos | pos | pos | pos | pos | pos | pos | pos | pos | Inhibition of Hydrogen peroxide (H2O2) production (MRC5 cells; [5]): pos; Inhibition of Hydrogen peroxide (H2O2) production (MRC5 cells; [6]): pos; Inhibition of Hydrogen peroxide (H2O2) production (MRC5 cells; [7]): pos |
